The results in this text go back to ChEMBL document CHEMBL1201862, “PubChem BioAssay data set” (2004).

Usually AC50 stands for the concentration giving half of the maximal activity seen. Usually EC50 stands for the concentration at which the effect is half-maximal.

Activity calls are given as the source filed them. Bounds are passed on as bounds.

A short description of test [1]: BJeHLT cell viability loss – BJeHLT cells, dry powder, counter-screen for Ras selective lethality project, dose response (AID 493052). In kind it is functional, cell-based. The note with it: Homo sapiens. (In general: A counterscreen serves to expose hits that act by an unwanted route or on another target.)
A short description of test [2]: DRD BJ cell killing, Ras synthetic lethality – DRD BJ fibroblasts, HRASV12, dry powder, dose response (AID 493049). In kind it is functional, cell-based.
The nature of test [3]: HRAS-V12 fibroblast viability reduction – cell-based, Alamar Blue, dry powder, Ras selective lethality project, primary screen (AID 493045). Type of test: functional. The note with it: BJeLR.
Test [4] can be described thus: BJeH cell viability loss – BJeH cells, dry powder, counter-screen for Ras selective lethality project, dose response (AID 493054). In kind it is functional, cell-based.
The next test deals with Saccharomyces cerevisiae. Briefly: S. cerevisiae Caspase-1/ASC signal blockers IC50, NALP1 inhibitor project selectivity test (AID 488863). In kind it is functional, organism-based.
Test [5] concerns the target NACHT, LRR and PYD domains-containing protein 1 (Homo sapiens, UniProt Q9C000). Nature of the test: NALP1 inhibitors in yeast, dose response, luminescent (AID 488860). In kind it is functional.
The target in test [6] is T1, Polyadenylate-binding protein 1 (Homo sapiens, UniProt P11940). Briefly: MLLE binding blockers, Cy5 peptide tracer – biochemical, fluorescence polarization, Cy5-PAM2 peptide, secondary, miRNA deadenylation inhibitor project, dose response (AID 602260). Type of test: functional. The note with it: read-out: IC50_Mean. Background: Fluorescence polarisation rises when a labelled molecule tumbles more slowly, as on binding a larger partner.

Test [7] addresses T1, Polyadenylate-binding protein 1. Nature of the test: MLLE domain peptide-binding blockers, IC50 – biochemical, fluorescence polarization, FITC-PAM2 peptide, dose response (AID 602259). Conditions: read-out: IC50_Mean. Type of test: functional.
The target in test [8] is Eukaryotic translation initiation factor 4H (Homo sapiens, UniProt Q15056). Nature of the test: inhibitors of translation initiation factor eIF4H – SAR follow-up (AID 435011). Type of test: functional.
The target of test [9] is T1, Polyadenylate-binding protein 1. Nature of the test: PABP inhibition in translation initiation, SAR follow-up (AID 435018). Type of test: functional.
Test [10] in a line: luciferase reporter signal suppression in cells – H4 neuroglioma cells, luminescence, dose response (AID 1990). Type of test: functional, cell-based. (In general: A reporter such as luciferase makes a cellular process visible.)
Test [11] in a line: luciferase reporter signal reduction – luminescence, H4-C neuroglioblastoma cells, dose response (AID 2458).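 Also: H4 neuroglioblastoma cells stably carrying a luciferase reporter gene fusion.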 Type of test: functional, cell-based.
In test [12] the test system is BJ. Nature of the test: BJ-TERT fibroblast viability loss – cell-based, RAS-independent, luminescence, dose response (AID 1933). Type of test: functional. Conditions: Homo sapiens.
Another test is described as follows: cells. In kind it is functional, cell-based.
Test [13] in a line: Luminescence Cell-Based Dose Response HTS to Identify Inhibitors of 5'UTR Stem-Loop Driven Prion Protein mRNA Translation in H4 Neuroglioblastoma Cells. [Related pubchem assays: 1827 (Project Summary), 1813 (Primary HTS)]. In kind it is functional.
Test [14] is described as follows: alpha-synuclein stem-loop luciferase translation blockers – H4 neuroglioma cells, luminescence, confirmation (AID 1988). In kind it is functional, cell-based.
In test [15] the test system is BJ. Nature of the test: cells. In kind it is functional, cell-based. The note with it: Homo sapiens.
A further test concerns J774.A1. Briefly: Confirmation of image-based Screening Assay for Inhibitors of Phagocytosis. [Related pubchem assays (depositor defined):AID1029, AID1643]. In kind it is functional, cell-based. Conditions: Mus musculus.
Test [16] concerns BJ. Nature of the test: BJ-TERT-LT-ST fibroblast viability loss – cell-based, RAS-independent, luminescence, dose response (AID 1935).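 Also: BJ fibroblasts immortalized with TERT plus LT and ST oncogenes.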 Type of test: functional. Conditions: Homo sapiens.
Test [17] can be described thus: DRD fibroblast viability loss – cell-based, non-viral oncogenic, luminescence, dose response (AID 1934). In kind it is functional. Conditions: Homo sapiens.
Test [18] is described as follows: alpha-synuclein stem-loop translation blockers – luminescence, H4 neuroglioblastoma cells, dose confirmation, confirmation (AID 2454).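 Also: H4 neuroglioblastoma cells carrying an alpha-synuclein 5'UTR luciferase reporter; potency for inhibition of the luciferase signal.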 Type of test: functional, cell-based.
The nature of test [19]: HEK-293T viability loss after treatment – luminescence, T-cell screen hits, cytotoxicity control for TCR NF-kB inhibitor project, dose response (AID 489026).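 Also: cells exposed to compound about 14 hours before the viability readout.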 In kind it is functional, cell-based.
Test [20] in a line: toxicity toward HEK293 cells – cell-based, dry powder samples, cytotoxicity control, dose response (AID 720567). In kind it is functional.
Test [21] in a line: HEK-293T cell viability reduction – luminescence, B-cell screen hits, cytotoxicity control for BCR NF-kB inhibitor project, dose response (AID 489021).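 Also: HEK-293T cells carrying an NF-kB luciferase reporter; cells exposed to compound for about 14 hours before viability readout.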 Type of test: functional, cell-based.
For test [22], the target named is T2, Histone-lysine N-methyltransferase NSD2 (Homo sapiens, UniProt O96028).
T2 sequence (O96028 whole entry): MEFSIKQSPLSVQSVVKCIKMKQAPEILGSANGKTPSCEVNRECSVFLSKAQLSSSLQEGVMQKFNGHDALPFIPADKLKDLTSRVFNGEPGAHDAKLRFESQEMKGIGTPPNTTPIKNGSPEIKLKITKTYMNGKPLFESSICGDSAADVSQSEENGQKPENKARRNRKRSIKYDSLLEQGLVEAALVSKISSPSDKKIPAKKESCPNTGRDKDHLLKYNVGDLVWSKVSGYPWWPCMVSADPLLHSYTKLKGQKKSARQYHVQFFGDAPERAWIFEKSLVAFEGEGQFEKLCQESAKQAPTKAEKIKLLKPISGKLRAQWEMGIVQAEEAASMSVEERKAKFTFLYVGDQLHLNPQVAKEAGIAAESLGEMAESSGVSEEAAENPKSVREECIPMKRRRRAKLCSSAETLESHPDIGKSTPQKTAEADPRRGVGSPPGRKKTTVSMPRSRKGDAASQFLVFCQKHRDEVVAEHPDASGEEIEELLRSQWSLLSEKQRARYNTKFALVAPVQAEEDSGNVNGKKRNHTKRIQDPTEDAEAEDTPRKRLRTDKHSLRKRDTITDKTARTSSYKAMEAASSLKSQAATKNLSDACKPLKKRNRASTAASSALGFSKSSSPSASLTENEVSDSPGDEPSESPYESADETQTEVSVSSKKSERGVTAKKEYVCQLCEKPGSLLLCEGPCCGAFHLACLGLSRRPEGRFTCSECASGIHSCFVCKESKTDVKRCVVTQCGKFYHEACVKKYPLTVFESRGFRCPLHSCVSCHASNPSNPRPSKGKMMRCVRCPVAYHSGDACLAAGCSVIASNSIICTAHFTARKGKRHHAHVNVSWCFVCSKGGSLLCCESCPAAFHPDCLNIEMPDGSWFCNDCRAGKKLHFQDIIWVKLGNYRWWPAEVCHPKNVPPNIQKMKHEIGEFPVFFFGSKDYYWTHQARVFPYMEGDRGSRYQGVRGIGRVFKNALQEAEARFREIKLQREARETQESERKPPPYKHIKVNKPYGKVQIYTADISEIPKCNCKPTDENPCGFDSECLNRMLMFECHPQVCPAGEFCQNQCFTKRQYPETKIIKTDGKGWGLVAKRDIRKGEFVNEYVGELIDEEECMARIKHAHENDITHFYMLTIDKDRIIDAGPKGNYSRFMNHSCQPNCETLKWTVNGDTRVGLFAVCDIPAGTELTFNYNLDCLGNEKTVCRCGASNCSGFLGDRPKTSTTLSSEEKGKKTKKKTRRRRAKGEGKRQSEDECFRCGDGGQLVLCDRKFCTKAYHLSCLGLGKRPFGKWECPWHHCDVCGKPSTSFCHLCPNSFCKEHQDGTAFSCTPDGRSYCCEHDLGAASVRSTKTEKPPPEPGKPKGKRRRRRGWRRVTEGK
Type of test: biochemical.

Test [23] deals with NACHT, LRR and PYD domains-containing protein 3 (Homo sapiens, UniProt Q96P20). Nature of the test: NALP3 inhibitors in yeast, dose response, luminescent (AID 488799). Type of test: functional.
Test [24] concerns the target T3, RNA-binding protein pos-1 (Caenorhabditis elegans, UniProt G5EF15).
T3 sequence (G5EF15 whole entry): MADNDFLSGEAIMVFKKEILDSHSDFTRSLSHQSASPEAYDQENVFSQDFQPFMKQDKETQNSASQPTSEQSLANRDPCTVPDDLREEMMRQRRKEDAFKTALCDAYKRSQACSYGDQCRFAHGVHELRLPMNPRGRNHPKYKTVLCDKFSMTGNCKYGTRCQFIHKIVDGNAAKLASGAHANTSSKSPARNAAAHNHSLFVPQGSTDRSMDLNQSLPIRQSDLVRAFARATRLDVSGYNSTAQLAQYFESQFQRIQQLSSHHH
Briefly: disruptors of C. elegans POS-1 RNA interaction – biochemical, fluorescence polarization, dose response (AID 1964).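 Also: purified POS-1 fused to maltose binding protein made in E. coli; potency of compounds blocking POS-1 binding to fluorescent RNA.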

Test [25] deals with Glyceraldehyde-3-phosphate dehydrogenase (Homo sapiens, UniProt P04406).
The target in test [26] is T4, Zinc finger protein mex-5 (Caenorhabditis elegans, UniProt Q9XUB2).
T4 sequence (Q9XUB2 whole entry): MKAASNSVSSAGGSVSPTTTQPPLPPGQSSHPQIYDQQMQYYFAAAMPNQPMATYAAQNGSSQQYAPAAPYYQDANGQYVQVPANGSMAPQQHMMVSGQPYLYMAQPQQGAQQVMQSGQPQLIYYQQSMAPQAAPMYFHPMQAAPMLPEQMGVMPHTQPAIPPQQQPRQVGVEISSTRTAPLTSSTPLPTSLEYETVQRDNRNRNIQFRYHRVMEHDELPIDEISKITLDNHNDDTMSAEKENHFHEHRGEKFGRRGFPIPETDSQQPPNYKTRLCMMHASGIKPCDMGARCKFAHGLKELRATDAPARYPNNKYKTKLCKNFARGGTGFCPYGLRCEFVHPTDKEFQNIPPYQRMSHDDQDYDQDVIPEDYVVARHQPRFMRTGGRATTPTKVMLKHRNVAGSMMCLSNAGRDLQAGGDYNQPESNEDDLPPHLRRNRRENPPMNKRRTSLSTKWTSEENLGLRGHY
Briefly: potency of MEX-5 RNA-binding blockers – biochemical, C. elegans, fluorescence polarization, dose response (AID 1960).

The target of test [27] is Heat shock cognate 71 kDa protein (Homo sapiens, UniProt P11142). Briefly: In Vitro Hsc70 Dose Response Fluorescence Polarization Assay. [Related pubchem assays: 1072 ].
The target of test [28] is Heat shock 70 kDa protein 1A (Homo sapiens, UniProt P0DMV8). Briefly: inhibition of Hsp70 binding activity – biochemical, fluorescence polarization, SAR follow-up (AID 1072).
Another test deals with ORF 73 (Human herpesvirus 8, UniProt O40947). Nature of the test: KSHV LANA DNA-binding disruption – biochemical, fluorescence polarization, cherry-picked samples, dose response (AID 504725).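 Also: fluorescence polarization of a labeled DNA duplex reporting LANA DNA binding; potency is for inhibitors that block LANA binding to the DNA.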 More on the design: species or system Human gammaherpesvirus 8.
For the next test, the target named is Genome polyprotein (dengue virus type 2, UniProt P29990). Nature of the test: flavivirus cap methylation enzyme inhibition – biochemical, confirmation dose response, primary screen (AID 588689). In kind it is functional.
Sequence of Genome polyprotein (P29990 2492-3391 limits assumed): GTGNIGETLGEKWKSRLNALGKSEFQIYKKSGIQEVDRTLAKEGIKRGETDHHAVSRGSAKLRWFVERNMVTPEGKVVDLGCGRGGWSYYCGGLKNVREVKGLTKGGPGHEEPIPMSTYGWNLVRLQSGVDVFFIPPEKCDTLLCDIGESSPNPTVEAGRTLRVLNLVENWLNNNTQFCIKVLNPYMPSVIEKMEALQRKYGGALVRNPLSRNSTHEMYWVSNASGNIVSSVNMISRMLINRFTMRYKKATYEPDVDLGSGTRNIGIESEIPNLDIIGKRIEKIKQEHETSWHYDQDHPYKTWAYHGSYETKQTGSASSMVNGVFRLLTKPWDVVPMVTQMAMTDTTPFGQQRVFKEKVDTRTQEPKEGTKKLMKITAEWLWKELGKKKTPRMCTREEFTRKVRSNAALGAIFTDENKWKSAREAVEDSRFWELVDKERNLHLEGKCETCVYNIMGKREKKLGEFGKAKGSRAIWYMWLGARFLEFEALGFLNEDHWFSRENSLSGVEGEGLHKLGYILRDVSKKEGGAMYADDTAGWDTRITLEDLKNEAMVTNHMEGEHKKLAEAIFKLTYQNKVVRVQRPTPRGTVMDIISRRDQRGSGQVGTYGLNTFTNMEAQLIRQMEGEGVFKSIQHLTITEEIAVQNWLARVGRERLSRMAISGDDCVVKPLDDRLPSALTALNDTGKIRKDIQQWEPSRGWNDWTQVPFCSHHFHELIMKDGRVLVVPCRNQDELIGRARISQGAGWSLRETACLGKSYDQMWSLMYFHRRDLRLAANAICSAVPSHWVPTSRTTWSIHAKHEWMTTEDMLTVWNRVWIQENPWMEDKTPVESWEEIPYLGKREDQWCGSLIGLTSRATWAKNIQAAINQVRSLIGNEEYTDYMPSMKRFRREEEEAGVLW

T1 sequence (P11940 whole entry): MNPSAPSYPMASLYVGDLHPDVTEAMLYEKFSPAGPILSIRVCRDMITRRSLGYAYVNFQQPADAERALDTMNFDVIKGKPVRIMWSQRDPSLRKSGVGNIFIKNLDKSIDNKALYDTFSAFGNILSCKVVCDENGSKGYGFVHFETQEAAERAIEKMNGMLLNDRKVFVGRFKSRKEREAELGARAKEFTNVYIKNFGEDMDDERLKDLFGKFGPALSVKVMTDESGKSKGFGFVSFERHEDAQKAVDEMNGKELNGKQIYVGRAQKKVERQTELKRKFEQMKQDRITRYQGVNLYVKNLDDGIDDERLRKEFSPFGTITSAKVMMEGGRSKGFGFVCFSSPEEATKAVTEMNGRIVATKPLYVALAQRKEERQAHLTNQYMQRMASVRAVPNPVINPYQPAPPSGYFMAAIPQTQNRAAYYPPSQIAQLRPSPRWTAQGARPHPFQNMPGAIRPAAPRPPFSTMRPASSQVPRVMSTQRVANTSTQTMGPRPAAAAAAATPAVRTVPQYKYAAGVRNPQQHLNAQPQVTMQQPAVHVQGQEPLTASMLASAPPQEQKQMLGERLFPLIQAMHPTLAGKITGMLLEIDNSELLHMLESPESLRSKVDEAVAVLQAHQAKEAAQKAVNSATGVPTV
Sequence of Heat shock cognate 71 kDa protein (P11142 whole entry): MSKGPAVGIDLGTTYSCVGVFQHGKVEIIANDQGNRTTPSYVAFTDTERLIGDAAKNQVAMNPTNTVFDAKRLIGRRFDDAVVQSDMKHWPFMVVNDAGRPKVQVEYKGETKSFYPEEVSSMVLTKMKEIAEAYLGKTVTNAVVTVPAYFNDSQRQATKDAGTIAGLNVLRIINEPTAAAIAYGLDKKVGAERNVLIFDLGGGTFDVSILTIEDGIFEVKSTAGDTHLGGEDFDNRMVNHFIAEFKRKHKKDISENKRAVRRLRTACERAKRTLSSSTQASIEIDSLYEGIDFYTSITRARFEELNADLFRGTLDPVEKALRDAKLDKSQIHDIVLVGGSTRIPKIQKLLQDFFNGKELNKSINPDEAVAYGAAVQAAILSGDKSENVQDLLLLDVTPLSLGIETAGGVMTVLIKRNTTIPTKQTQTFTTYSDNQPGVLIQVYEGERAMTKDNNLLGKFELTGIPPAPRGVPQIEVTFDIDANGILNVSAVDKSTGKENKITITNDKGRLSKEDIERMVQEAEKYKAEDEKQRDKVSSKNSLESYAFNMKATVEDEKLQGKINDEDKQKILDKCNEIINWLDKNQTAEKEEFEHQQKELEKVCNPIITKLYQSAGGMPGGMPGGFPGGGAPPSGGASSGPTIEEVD
Sequence of ORF 73 (O40947 whole entry): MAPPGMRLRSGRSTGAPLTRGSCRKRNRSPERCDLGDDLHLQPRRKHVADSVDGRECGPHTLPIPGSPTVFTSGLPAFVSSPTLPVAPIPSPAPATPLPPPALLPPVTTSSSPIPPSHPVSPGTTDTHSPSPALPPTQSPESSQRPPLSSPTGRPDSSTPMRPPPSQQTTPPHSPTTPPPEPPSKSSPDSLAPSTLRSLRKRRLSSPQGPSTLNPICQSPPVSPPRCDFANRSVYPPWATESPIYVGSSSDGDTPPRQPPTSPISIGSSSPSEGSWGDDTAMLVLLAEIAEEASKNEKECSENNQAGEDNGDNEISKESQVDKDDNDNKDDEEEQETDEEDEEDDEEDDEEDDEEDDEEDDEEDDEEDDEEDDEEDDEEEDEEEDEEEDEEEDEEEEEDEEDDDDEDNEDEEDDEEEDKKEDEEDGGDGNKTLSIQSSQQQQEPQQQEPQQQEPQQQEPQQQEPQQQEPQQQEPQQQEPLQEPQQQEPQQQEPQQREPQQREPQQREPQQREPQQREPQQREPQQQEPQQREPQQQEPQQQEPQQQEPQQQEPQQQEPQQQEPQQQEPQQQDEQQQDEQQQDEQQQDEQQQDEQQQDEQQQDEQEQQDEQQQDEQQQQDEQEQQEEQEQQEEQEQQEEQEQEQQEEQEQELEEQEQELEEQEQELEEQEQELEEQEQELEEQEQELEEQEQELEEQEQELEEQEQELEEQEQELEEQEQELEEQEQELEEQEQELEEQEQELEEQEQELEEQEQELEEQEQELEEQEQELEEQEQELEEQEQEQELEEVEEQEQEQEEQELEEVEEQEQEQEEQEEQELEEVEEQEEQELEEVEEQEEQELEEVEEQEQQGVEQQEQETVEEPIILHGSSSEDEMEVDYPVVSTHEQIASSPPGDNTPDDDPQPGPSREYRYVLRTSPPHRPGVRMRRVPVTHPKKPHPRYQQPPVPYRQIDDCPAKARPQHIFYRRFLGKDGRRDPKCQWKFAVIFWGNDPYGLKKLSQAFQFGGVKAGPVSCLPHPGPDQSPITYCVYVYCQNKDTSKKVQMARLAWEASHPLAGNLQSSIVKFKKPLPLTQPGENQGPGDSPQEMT
Sequence of NACHT, LRR and PYD domains-containing protein 1 (Q9C000 1-1212 limits assumed): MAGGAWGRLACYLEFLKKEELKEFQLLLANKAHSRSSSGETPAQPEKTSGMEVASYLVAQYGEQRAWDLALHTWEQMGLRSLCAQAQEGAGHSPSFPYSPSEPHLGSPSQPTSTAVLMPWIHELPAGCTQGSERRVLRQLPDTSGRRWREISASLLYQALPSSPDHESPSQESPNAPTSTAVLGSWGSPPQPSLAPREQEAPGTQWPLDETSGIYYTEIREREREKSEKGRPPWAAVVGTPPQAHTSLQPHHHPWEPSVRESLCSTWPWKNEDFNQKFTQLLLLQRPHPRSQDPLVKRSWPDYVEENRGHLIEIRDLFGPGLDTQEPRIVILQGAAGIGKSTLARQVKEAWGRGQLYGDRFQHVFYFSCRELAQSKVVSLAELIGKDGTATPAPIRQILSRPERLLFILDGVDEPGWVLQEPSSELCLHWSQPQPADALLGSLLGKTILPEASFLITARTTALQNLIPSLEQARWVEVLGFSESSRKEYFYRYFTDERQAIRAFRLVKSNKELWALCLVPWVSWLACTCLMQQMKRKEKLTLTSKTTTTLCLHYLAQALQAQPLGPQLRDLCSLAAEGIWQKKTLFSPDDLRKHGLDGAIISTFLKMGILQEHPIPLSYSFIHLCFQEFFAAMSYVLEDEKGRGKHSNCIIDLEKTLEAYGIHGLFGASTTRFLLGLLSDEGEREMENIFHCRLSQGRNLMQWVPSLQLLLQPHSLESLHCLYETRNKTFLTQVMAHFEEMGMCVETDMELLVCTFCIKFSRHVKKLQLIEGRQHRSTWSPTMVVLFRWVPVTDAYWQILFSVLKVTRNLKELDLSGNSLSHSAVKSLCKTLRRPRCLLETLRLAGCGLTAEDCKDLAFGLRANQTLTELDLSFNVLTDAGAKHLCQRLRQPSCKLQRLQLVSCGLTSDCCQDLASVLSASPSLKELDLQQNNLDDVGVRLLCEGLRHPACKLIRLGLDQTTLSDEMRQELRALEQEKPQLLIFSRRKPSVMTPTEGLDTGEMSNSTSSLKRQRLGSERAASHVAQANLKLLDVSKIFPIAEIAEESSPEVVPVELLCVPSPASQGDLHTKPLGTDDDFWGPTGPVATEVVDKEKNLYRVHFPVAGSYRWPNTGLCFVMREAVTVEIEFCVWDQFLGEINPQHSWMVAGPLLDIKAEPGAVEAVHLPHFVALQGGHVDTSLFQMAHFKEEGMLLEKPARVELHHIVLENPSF
Sequence of NACHT, LRR and PYD domains-containing protein 1 (Q9C000 1213-1473 limits assumed): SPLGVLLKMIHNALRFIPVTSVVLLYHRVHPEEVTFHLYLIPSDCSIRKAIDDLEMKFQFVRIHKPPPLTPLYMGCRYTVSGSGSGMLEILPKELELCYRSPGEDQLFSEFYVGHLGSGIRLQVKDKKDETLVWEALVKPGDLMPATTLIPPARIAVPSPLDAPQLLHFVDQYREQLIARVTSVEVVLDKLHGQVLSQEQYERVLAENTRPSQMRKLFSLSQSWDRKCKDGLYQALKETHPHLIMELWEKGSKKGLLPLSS

Turning to `COc1ccc(N(C(=O)CCl)C(C(=O)NCCc2ccccc2)C2CCCCC2)cc1Cl` (stereo not drawn), the AC50 is 1.18 µM (active) in test [1], 0.496 µM (active) in test [2], 0.505 µM (active) in [3] and 1.48 µM (active) in test [4].
Turning to `Cc1ccc(N2C(=O)CC(Sc3ccccc3C(=O)O)C2=O)cc1` (stereo not drawn), the IC50 is 20.6 µM (active) in the test with Saccharomyces cerevisiae, 34.4 µM (active) in test [5], > 66 µM (inactive) in [6] and > 66 µM (inactive) in test [7].
For `Cc1ccc(NC(=O)C2CCN(C(=O)c3cccs3)CC2)cc1`, the IC50 in test [8] and in [9] was > 100 µM (inactive) in each case.
Take `Cc1cc(C)cc(C(=O)N2CC(=O)Nc3ccccc32)c1`: the EC50 in test [10] is 1.09 µM (active); in [11] it was 0.921 µM (active); in the test on BJ [12], 1.24 µM (inconclusive); in the test “cells”, 0.858 µM (active); in test [13] it was < 0.1 µM (active); in test [14] it was < 0.1 µM (active). In addition, the EC50 is 3.38 µM (active) in the test with BJ [15], 11.5 µM (inconclusive) in the test with BJ [16], 0.817 µM (active) in [17] and > 12 µM (inconclusive) in test [18]. In addition, the IC50 in the test on J774.A1 is 0.161 µM (active); in [19], > 80 µM (inactive). Also, in [20], the AC50 is > 30 µM (inactive).
For `CCN(CC)CCC/N=C/c1c(-c2ccccc2)nn(-c2nc3ccccc3s2)c1O`, in [21], the IC50 was > 80 µM (inactive). Further, the AC50 in test [22] was > 20 µM (inactive).
In the case of `CCCCCNC(=O)C(=O)C1C(=O)Nc2ccccc21` (stereo not drawn), the IC50 in test [23] was 2.9 µM (active).
Turning to `CCN(CC)C(=O)c1ccc2c(c1)C1C=CCC1C(C(=O)O)N2` (stereo not drawn), the EC50 in test [24] is 11.2 µM (active); in [26], 6.32 µM (active). In addition, the IC50 in test [25] was > 100 µM (not active); in [27], > 100 µM (not active); in test [28], > 100 µM (not active); at Genome polyprotein, 86.7 µM (active). Besides, on ORF 73, the AC50 is 166 µM (active).
